Reference: ChEMBL document CHEMBL1143808, “A generally applicable method for assessing the electrophilicity and reactivity of diverse nitrile-containing compounds” (Bioorg Med Chem Lett, 2007)

Assays:
Format in all cases: ADME, Microsome
Liver microsomes [1] = assay: Irreversible covalent binding in human liver microsomes at 100 uM after 30 mins; conditions: 0.5 h
Liver microsomes [2] = assay: Irreversible covalent binding in human liver microsomes at 10 uM after 1 hr
Liver microsomes [3] = assay: Irreversible covalent binding in rat liver microsomes after 1 hr

Row | SMILES | Activity (Liver microsomes [1]) [%] | Activity (Liver microsomes [2]) [pmol/mg] | Activity (Liver microsomes [3]) [pmol/mg]
1 | [3H]C([3H])([3H])S(=O)(=O)c1ccc(-c2ccc([C@H](N[C@@H](CC(C)C)C(=O)NCC#N)C(F)(F)F)cc2)cc1 | 0.06 | 7 | 
2 | COCCN1CCC(Cc2ccc(C(=O)NCc3cnc(C#N)nc3NCC(C)(C)C)cc2)CC1 | 0.5 | 70 | 
3 | N#CN1CCC(NS(=O)(=O)c2ccccc2)C1 (configuration not stated) | 3.6 | 460 | 550
